Data taken from patent publication EP4810052A2, “HCRHR2 SELECTIVE POLYPEPTIDES” (Gubra A/S, priority 2023, dated 2026).
Read-outs that look alike come from different tables or passages of the source. Starred links: 1 amine or outer side, 2 acyl side, 3 side chain; linkers in the order of their positions; H or OH if unused. Non-standard residues stand in square brackets, D forms with d. Residues, ends and D or L forms follow the SMILES beside them. Groups on a side chain read outwards from the residue. *: point of attachment. C20 diacid = O=C(O)CCCCCCCCCCCCCCCCCCC(=O)*; γGlu = O=C(O)[C@H](CCC(=O)[*:2])N[*:1]; NMeI = CC[C@H](C)[C@H](NC)C(=O)O; Nle = CCCC[C@H](N)C(=O)O; AEEA = NCCOCCOCC(=O)O; Aib = CC(C)(N)C(=O)O

How the values were obtained:
[1] = molecular target: T1, hCRHR2 (Homo sapiens, UniProt Q13324); test: HTRF cAMP assay, determination of hCRHR2 potency (peptide libraries 5 conc., purified peptides 11 conc.); type: cell-based
T1 sequence (Q13324 1-411): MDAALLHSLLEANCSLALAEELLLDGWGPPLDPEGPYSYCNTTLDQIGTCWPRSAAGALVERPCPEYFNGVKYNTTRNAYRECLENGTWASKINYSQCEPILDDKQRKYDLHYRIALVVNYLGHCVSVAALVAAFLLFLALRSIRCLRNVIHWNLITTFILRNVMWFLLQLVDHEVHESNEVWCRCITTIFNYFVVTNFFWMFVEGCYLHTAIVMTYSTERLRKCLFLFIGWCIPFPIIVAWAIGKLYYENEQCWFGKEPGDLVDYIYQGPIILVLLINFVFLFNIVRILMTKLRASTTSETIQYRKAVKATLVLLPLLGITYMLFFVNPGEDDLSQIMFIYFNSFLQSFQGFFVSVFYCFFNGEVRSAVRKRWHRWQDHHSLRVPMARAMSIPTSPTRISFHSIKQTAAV
Method in brief: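 CHO-K1 cells stably expressing human CRHR2, thawed from frozen stocks just before use and run in suspension; cAMP measured by competitive HTRF immunoassay (cryptate anti-cAMP, d2-cAMP). Agonist peptides tested at 5 (libraries) or 11 (purified) concentrations; EC50 from sigmoid variable-slope nonlinear regression.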

[2] = molecular target: T2, hCRHR1 (Homo sapiens, UniProt P34998); test: HTRF cAMP assay, determination of hCRHR1 potency (peptide libraries 5 conc., purified peptides 11 conc.); type: cell-based
T2 sequence (P34998 24-415): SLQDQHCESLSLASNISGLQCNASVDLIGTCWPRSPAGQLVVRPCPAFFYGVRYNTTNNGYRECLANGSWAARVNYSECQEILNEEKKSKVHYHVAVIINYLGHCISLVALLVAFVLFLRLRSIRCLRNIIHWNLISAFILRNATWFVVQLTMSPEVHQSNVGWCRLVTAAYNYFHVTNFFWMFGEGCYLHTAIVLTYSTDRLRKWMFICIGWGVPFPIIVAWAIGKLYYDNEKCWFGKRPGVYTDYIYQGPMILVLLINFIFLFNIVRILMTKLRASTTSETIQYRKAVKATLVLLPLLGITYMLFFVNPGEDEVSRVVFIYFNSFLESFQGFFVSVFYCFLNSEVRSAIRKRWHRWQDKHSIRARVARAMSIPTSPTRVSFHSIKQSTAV
From the text: HTRF (CisBio) cAMP assay: The assay technology has thoroughly been described in the CisBio HTRF cAMP assay Kit manual (# 62AM4PEC). Briefly, time resolved fluorescence technic was applied to measure cAMP. This technic is based on a competitive immunoassay using cryptate-labelled anti-cAMP antibody and d2-labeled cAMP. In the absence of cellular cAMP, the anti-cAMP cryptate conjugate may get into proximity to cAMP-d2 conjugate and energy (FRET) can be transferred from cryptate to d2. CHO-K1 cells stably expressing the human corticotropin-releasing hormone receptor 1 (Eurofins/DiscoverX Cat #95-0047C2 hCRHR1 stable monoclonal cell lines) were used as cells in suspension, brought to life from frozen cell stocks immediately before assay performance. […] Concentration-response evaluation of compounds was performed with 5 concentrations of agonist peptides and EC50 values were calculated by nonlinear regression using sigmoid concentration-response with variable slope. Concentration-response evaluation of compounds was performed with 11 concentrations of agonist peptides and EC50 values were calculated by nonlinear regression using sigmoid concentration-response with variable slope.

[3] = library peptides, matched molecular pairs L vs Nle in position X^38, read-out: Potency hCRHR2 pEC50 (converted)
[4] = library peptides, matched molecular pairs L vs Nle in position X^38, read-out: Potency hCRHR1 pEC50 (converted)

Structure (SMILES) | EC50 [1, 3] | EC50 [2, 4] | further results
CCCC[C@H](NC(=O)[C@@H](NC(=O)[C@H](CCC(=O)O)NC(=O)[C@H](C)NC(=O)[C@H](CC(N)=O)NC(=O)C(C)(C)NC(=O)[C@H](CCCCNC(=O)COCCOCCNC(=O)COCCOCCNC(=O)CC[C@H](NC(=O)CC[C@H](NC(=O)CCCCCCCCCCCCCCCCCCC(=O)O)C(=O)O)C(=O)O)NC(=O)[C@H](C)NC(=O)[C@H](CCC(N)=O)NC(=O)[C@H](CCC(=O)O)NC(=O)[C@H](CCCNC(=N)N)NC(=O)[C@H](C)NC(=O)[C@H](C)NC(=O)[C@H](CCCNC(=N)N)NC(=O)[C@H](C)NC(=O)[C@H](CCCNC(=N)N)NC(=O)[C@H](C)NC(=O)[C@H](CCC(N)=O)NC(=O)[C@H](CC(C)C)NC(=O)[C@H](CC(C)C)NC(=O)[C@H](CC(C)C)NC(=O)[C@@H](NC(=O)[C@H](CCC(N)=O)NC(=O)[C@H](CC(C)C)NC(=O)[C@H](CC(C)C)NC(=O)CNC(=O)[C@@H](NC(=O)[C@@H]1CCCN1C(=O)[C@@H](NC(=O)[C@H](CC(=O)O)NC(=O)[C@H](CC(C)C)NC(=O)[C@H](CO)NC(=O)[C@H](CC(C)C)NC(=O)[C@@H](NC(=O)[C@@H](NC)[C@@H](C)CC)C(C)C)C(C)C)[C@@H](C)CC)[C@@H](C)CC)[C@@H](C)CC)C(=O)N[C@@H](C)C(=O)N[C@@H](CCC(=O)O)C(=O)N[C@H](C(N)=O)C(C)C [compound 235] (H-[NMeI]VLSLDVPIGLLQILLLQARARAAREQAK([AEEA-AEEA-γGlu-γGlu-C20 diacid])[Aib]NAEI[Nle]AEV-NH2) |  |  | EC50 ([1]; Table 4, library peptides having X^38 = Nle, read-out: hCRHR2 pEC50 (converted)): 0.126 nM; EC50 ([2]; Table 4, library peptides having X^38 = Nle, read-out: hCRHR1 pEC50 (converted)): 158000 nM
CC[C@H](C)[C@H](N)C(=O)N[C@H](C(=O)N[C@@H](CC(C)C)C(=O)N[C@@H](CO)C(=O)N[C@@H](CC(C)C)C(=O)N[C@@H](CC(=O)O)C(=O)N[C@H](C(=O)N1CCC[C@H]1C(=O)N[C@H](C(=O)NCC(=O)N[C@@H](CC(C)C)C(=O)N[C@@H](CC(C)C)C(=O)N[C@@H](CCC(N)=O)C(=O)N[C@H](C(=O)N[C@@H](CC(C)C)C(=O)N[C@@H](CC(C)C)C(=O)N[C@@H](CCC(=O)O)C(=O)N[C@@H](CCC(N)=O)C(=O)N[C@@H](C)C(=O)N[C@@H](CCCNC(=N)N)C(=O)N[C@@H](C)C(=O)N[C@@H](CCCNC(=N)N)C(=O)N[C@@H](CO)C(=O)N[C@@H](C)C(=O)N[C@@H](CCCNC(=N)N)C(=O)N[C@@H](CCC(=O)O)C(=O)N[C@@H](CCC(N)=O)C(=O)N[C@@H](C)C(=O)N[C@@H](CCCCNC(=O)COCCOCCNC(=O)COCCOCCNC(=O)CC[C@H](NC(=O)CC[C@H](NC(=O)CCCCCCCCCCCCCCCCCCC(=O)O)C(=O)O)C(=O)O)C(=O)N[C@H](C(=O)N[C@@H](CC(N)=O)C(=O)N[C@@H](C)C(=O)N[C@@H](CCC(=O)O)C(=O)N[C@H](C(=O)N[C@@H](CC(C)C)C(=O)N[C@@H](C)C(=O)N[C@@H](CCC(=O)O)C(=O)N[C@H](C(N)=O)C(C)C)[C@@H](C)CC)[C@@H](C)O)[C@@H](C)CC)[C@@H](C)CC)C(C)C)C(C)C [compound 60] (H-IVLSLDVPIGLLQILLEQARARSAREQAK([AEEA-AEEA-γGlu-γGlu-C20 diacid])TNAEILAEV-NH2) | 0.501 nM | 25100 nM | 
CC[C@H](C)[C@H](N)C(=O)N[C@H](C(=O)N[C@@H](CC(C)C)C(=O)N[C@@H](CO)C(=O)N[C@@H](CC(C)C)C(=O)N[C@@H](CC(=O)O)C(=O)N[C@H](C(=O)N1CCC[C@H]1C(=O)N[C@H](C(=O)NCC(=O)N[C@@H](CC(C)C)C(=O)N[C@@H](CC(C)C)C(=O)N[C@@H](CCC(N)=O)C(=O)N[C@H](C(=O)N[C@@H](CC(C)C)C(=O)N[C@@H](CC(C)C)C(=O)N[C@@H](CCC(=O)O)C(=O)N[C@@H](CCC(N)=O)C(=O)N[C@@H](C)C(=O)N[C@@H](CCCNC(=N)N)C(=O)N[C@@H](C)C(=O)N[C@@H](CCCNC(=N)N)C(=O)N[C@@H](CO)C(=O)N[C@@H](CCC(N)=O)C(=O)N[C@@H](CCCNC(=N)N)C(=O)N[C@@H](CCC(=O)O)C(=O)N[C@@H](CCC(=O)O)C(=O)N[C@@H](C)C(=O)N[C@@H](CCCCNC(=O)COCCOCCNC(=O)COCCOCCNC(=O)CC[C@H](NC(=O)CC[C@H](NC(=O)CCCCCCCCCCCCCCCCCCC(=O)O)C(=O)O)C(=O)O)C(=O)N[C@H](C(=O)N[C@@H](CC(N)=O)C(=O)N[C@@H](C)C(=O)N[C@@H](CCC(=O)O)C(=O)N[C@H](C(=O)N[C@@H](CC(C)C)C(=O)N[C@@H](C)C(=O)N[C@@H](CCC(=O)O)C(=O)N[C@H](C(N)=O)C(C)C)[C@@H](C)CC)[C@@H](C)O)[C@@H](C)CC)[C@@H](C)CC)C(C)C)C(C)C [compound 70] (H-IVLSLDVPIGLLQILLEQARARSQREEAK([AEEA-AEEA-γGlu-γGlu-C20 diacid])TNAEILAEV-NH2) | 1.26 nM | 158000 nM | 
CC[C@H](C)[C@H](N)C(=O)N[C@H](C(=O)N[C@@H](CC(C)C)C(=O)N[C@@H](CO)C(=O)N[C@@H](CC(C)C)C(=O)N[C@@H](CC(=O)O)C(=O)N[C@H](C(=O)N1CCC[C@H]1C(=O)N[C@H](C(=O)NCC(=O)N[C@@H](CC(C)C)C(=O)N[C@@H](CCCCNC(=O)COCCOCCNC(=O)COCCOCCNC(=O)CC[C@H](NC(=O)CC[C@H](NC(=O)CCCCCCCCCCCCCCCCCCC(=O)O)C(=O)O)C(=O)O)C(=O)N[C@@H](CCC(N)=O)C(=O)N[C@H](C(=O)N[C@@H](CC(C)C)C(=O)N[C@@H](CC(C)C)C(=O)N[C@@H](CCC(=O)O)C(=O)N[C@@H](CCC(N)=O)C(=O)N[C@@H](C)C(=O)N[C@@H](CCCNC(=N)N)C(=O)N[C@@H](C)C(=O)N[C@@H](CCCNC(=N)N)C(=O)N[C@@H](C)C(=O)N[C@@H](C)C(=O)N[C@@H](CCCNC(=N)N)C(=O)N[C@@H](CCC(=O)O)C(=O)N[C@@H](CCC(N)=O)C(=O)N[C@@H](C)C(=O)N[C@H](C(=O)N[C@H](C(=O)N[C@@H](CC(N)=O)C(=O)N[C@@H](C)C(=O)N[C@@H](CCC(=O)O)C(=O)N[C@H](C(=O)N[C@@H](CC(C)C)C(=O)N[C@@H](C)C(=O)N[C@@H](CCC(=O)O)C(=O)N[C@H](C(N)=O)C(C)C)[C@@H](C)CC)[C@@H](C)O)[C@@H](C)O)[C@@H](C)CC)[C@@H](C)CC)C(C)C)C(C)C [SEQ ID NO: 261] (H-IVLSLDVPIGLK([AEEA-AEEA-γGlu-γGlu-C20 diacid])QILLEQARARAAREQATTNAEILAEV-NH2) |  |  | Selectivity ratio (hCRHR1/ hCRHR2) ([1]; hCRHR1-EC50/hCRHR2-EC50): >208; EC50 ([1]; purified peptides, CHO-K1 cells stably expressing hCRHR2, cAMP HTRF, read-out: hCRHR2 EC50): 24 nM; EC50 ([2]; purified peptides, CHO-K1 cells stably expressing hCRHR1, cAMP HTRF, read-out: hCRHR1 EC50): > 5000 nM
CC[C@H](C)[C@H](N)C(=O)N[C@H](C(=O)N[C@@H](CC(C)C)C(=O)N[C@@H](CO)C(=O)N[C@@H](CC(C)C)C(=O)N[C@@H](CC(=O)O)C(=O)N[C@H](C(=O)N1CCC[C@H]1C(=O)N[C@H](C(=O)NCC(=O)N[C@@H](CC(C)C)C(=O)N[C@@H](CC(C)C)C(=O)N[C@@H](CCC(N)=O)C(=O)N[C@H](C(=O)N[C@@H](CC(C)C)C(=O)N[C@@H](CC(C)C)C(=O)N[C@@H](CCC(=O)O)C(=O)N[C@@H](CCC(N)=O)C(=O)N[C@@H](C)C(=O)N[C@@H](CCCNC(=N)N)C(=O)N[C@@H](C)C(=O)N[C@@H](CCC(N)=O)C(=O)N[C@@H](C)C(=O)N[C@@H](C)C(=O)N[C@@H](CCCNC(=N)N)C(=O)N[C@@H](CCC(N)=O)C(=O)N[C@@H](CCC(N)=O)C(=O)N[C@@H](C)C(=O)N[C@@H](CCCCNC(=O)COCCOCCNC(=O)COCCOCCNC(=O)CC[C@H](NC(=O)CC[C@H](NC(=O)CCCCCCCCCCCCCCCCCCC(=O)O)C(=O)O)C(=O)O)C(=O)N[C@H](C(=O)N[C@@H](CC(N)=O)C(=O)N[C@@H](C)C(=O)N[C@@H](CCC(=O)O)C(=O)N[C@H](C(=O)N[C@@H](CC(C)C)C(=O)N[C@@H](C)C(=O)N[C@@H](CCC(=O)O)C(=O)N[C@H](C(N)=O)C(C)C)[C@@H](C)CC)[C@@H](C)O)[C@@H](C)CC)[C@@H](C)CC)C(C)C)C(C)C [compound 54] (H-IVLSLDVPIGLLQILLEQARAQAARQQAK([AEEA-AEEA-γGlu-γGlu-C20 diacid])TNAEILAEV-NH2) | 0.398 nM | 20000 nM | 
